Source: ChEMBL document CHEMBL1150658, “New ent-kaurane diterpenoids with anti-platelet aggregation activity from Annona squamosa” (2002)

How the values were obtained:
Type in all cases: functional
Conditions in all cases: Oryctolagus cuniculus
[1] = Antiplatelet activity against washed rabbit platelet assessed as inhibition of arachidonic acid-induced platelet aggregation at 200 uM
[2] = Antiplatelet activity against washed rabbit platelet assessed as inhibition of collagen-induced platelet aggregation at 200 uM
[3] = Antiplatelet activity against washed rabbit platelet assessed as inhibition of platelet activating factor-induced platelet aggregation at 200 uM
[4] = Antiplatelet activity against washed rabbit platelet assessed as inhibition of thrombin-induced platelet aggregation at 200 uM

C[C@@]12CCC[C@@](C)(C(=O)O)[C@H]1CC[C@@]13C[C@H](CC[C@H]12)[C@@](O)(CO)C3
inhibition at 200 µM [1]: 7.2% | inhibition at 200 µM [2]: 2.3% | inhibition at 200 µM [3]: 8.9% | inhibition at 200 µM [4]: 0.4%

C[C@@]12CCC[C@@](C)(O)[C@H]1CC[C@@]13C[C@H](CC[C@H]12)[C@](O)(CO)C3 [ANNOSQUAMOSIN B]
inhibition at 200 µM [1]: 8.7% | inhibition at 200 µM [2]: 21.1% | inhibition at 200 µM [3]: 8.5% | inhibition at 200 µM [4]: 1.6%

C=C1C[C@@]23CC[C@H]4[C@@](C)(CCC[C@@]4(C)C(=O)O)[C@@H]2CC[C@@H]1C3 [KAURENOIC ACID]
inhibition at 200 µM [1]: 24.8% | inhibition at 200 µM [2]: 100% | inhibition at 200 µM [3]: 12.6% | inhibition at 200 µM [4]: 5.6%

C[C@@]12CCC[C@@](C)(C=O)[C@H]1CC[C@@]13C[C@@H](CC[C@H]12)[C@@](O)(CO)C3
inhibition at 200 µM [1]: 0.5% | inhibition at 200 µM [2]: 4.9% | inhibition at 200 µM [3]: 10.3% | inhibition at 200 µM [4]: 3.2%

C[C@@]12CCC[C@@](C)(O)[C@H]1CC[C@@]13C[C@@H](CC[C@H]12)[C@@H](C(=O)O)C3
inhibition at 200 µM [1]: 4.5% | inhibition at 200 µM [2]: 30.5% | inhibition at 200 µM [3]: 13.3% | inhibition at 200 µM [4]: 2%

C[C@@]12CCC[C@@](C)(C(=O)O)[C@H]1CC[C@@]13C[C@@H](CC[C@H]12)[C@](O)(CO)C3
inhibition at 200 µM [1]: 14.9% | inhibition at 200 µM [2]: 8.6% | inhibition at 200 µM [3]: 14.4% | inhibition at 200 µM [4]: 6.8%

C[C@@]12CCC[C@@](C)(C=O)[C@H]1CC[C@@]13C[C@@H](CC[C@H]12)[C@](O)(CO)C3
inhibition at 200 µM [1]: 9.6% | inhibition at 200 µM [2]: 17.6% | inhibition at 200 µM [3]: 5.5% | inhibition at 200 µM [4]: 0%

C[C@@]12CCC[C@@](C)(C=O)[C@H]1CC[C@@]13C[C@@H](CC[C@H]12)[C@@H](C(=O)O)C3
inhibition at 200 µM [1]: 100% | inhibition at 200 µM [2]: 100% | inhibition at 200 µM [3]: 11.8% | inhibition at 200 µM [4]: 6.8%

CC(=O)OC[C@]1(O)C[C@@]23CC[C@H]4[C@@](C)(CCC[C@@]4(C)C(=O)O)[C@@H]2CC[C@H]1C3
inhibition at 200 µM [1]: 10.8% | inhibition at 200 µM [2]: 30.1% | inhibition at 200 µM [3]: 11.1% | inhibition at 200 µM [4]: 8%

C[C@@]12CCC[C@@](C)(C(=O)O)[C@H]1CC[C@]13C[C@@H](CO)[C@H](CC[C@H]12)C3
inhibition at 200 µM [1]: 4.1% | inhibition at 200 µM [2]: 23.8% | inhibition at 200 µM [3]: 7.4% | inhibition at 200 µM [4]: 2.8%

C[C@@]12CCC[C@@](C)(C(=O)O)[C@H]1CC[C@@]13C[C@@H](CC[C@H]12)[C@H](C(=O)O)C3
inhibition at 200 µM [1]: 15.4% | inhibition at 200 µM [2]: 56.9% | inhibition at 200 µM [3]: 15.2% | inhibition at 200 µM [4]: 6%

CC(=O)O[C@@]1(CO)C[C@@]23CC[C@H]4[C@@](C)(CCC[C@@]4(C)O)[C@@H]2CC[C@@H]1C3 [ANNOSQUAMOSIN D]
inhibition at 200 µM [1]: 4.9% | inhibition at 200 µM [2]: 10.6% | inhibition at 200 µM [3]: 9.3% | inhibition at 200 µM [4]: 2%
